Reference: US20260130907A1 (DANA-FARBER CANCER INSTITUTE, INC., priority 2022, published 2026)
Converted amounts (≈) assume the structure as drawn. Like-named read-outs stand apart in the source and are kept apart here.

Key:
B cell lymphoma 6 (BCL6) = biological target: T1, B cell lymphoma 6 (BCL6) (Homo sapiens, UniProt P41182); test: HiBiT cellular degradation assay in SU-DHL-4 cells; type: cell-based; details: for DC50: concentration to reach 50% degradation of endogenous SmBiT-tagged BCL6, SU-DHL-4 cells, 24 hours of compound treatment
T1 construct: Endogenous B cell lymphoma 6 (BCL6) was tagged with the 11-amino acid Small BiT (SmBiT); endogenous in cells; host or cells: SU-DHL-4 (CRISPR/Cas9 knock-in, single cell clone)
Method: DC50 (concentration to reach 50% degradation) values were determined from a cellular degradation assay (HiBiT, Promega™) in Su-DHL-4 cells (Table 1). Endogenous B cell lymphoma 6 (BCL6) was tagged with the 11-amino acid Small BiT (SmBiT) through clustered regularly interspaced short palindromic repeats (CRISPR)/CRISPR-associated protein 9 (Cas9) gene editing and single cell clone selection. After 24 hours of compound treatment, cells were lysed and incubated with Large BiT (LgBiT) protein to reconstitute intact nanoluciferase. Substrate was then added and relative luciferase units were measured. Degradation levels for each treatment were taken as a percentage compared to the control, 100% DMSO (Prism).

Kinetic solubility = type: physicochemical; details: kinetic from dmso stock
[1] = Metabolic stability in human liver microsome; type: in vitro ADME; details: pH 7.4; human liver microsomes with NADPH, 37° C., 0-60 min
Method: • K2HPO4 was dissolved in water to a final concentration of 50 mM, and then adjusted pH to 7.4 with HCl and filtered through a 0.22 μm filter.
• 1 mg/mL stock of terfenadine/tolbutamide with DMSO was prepared, and then made into quenching solution (5/10 ng/mL terfenadine/tolbutamide) with can.
• 10 mM test compound stock with DMSO was prepared, and then made into 200 μM working solution with DMSO.
• 10 mM control compound (dextromethorphan) stock with DMSO was prepared, and then made into 200 μM working solution with DMSO.
• Liver microsomes were thawed in 37° C. water bath, and then made into 0.63 mg/mL liver microsomes working solution with phosphate buffer.
• 5 mM NADPH working solution was prepared with phosphate buffer.
• a) 1.5 μL test compound/control compound working solution was added to 238.5 μL liver microsome (n=1). • b) The solution was pre-incubated at 37° C. for 5 min. • c) The reaction was started by adding 60 μL NADPH working solution. • d) At each time point (0, 5, 15, 30 and 60 min), 30 μL reaction mixture was removed and added to 300 μL quenching solution. • e) All samples were centrifuged at 4,000 rpm at 4° C. for 15 min, then 100 μL of supernatant was transferred with 100 μL water for LC-MS/MS analysis.

[2] = FaSSIF, read-out: Kinetic solubility (FaSSIF)
[3] = FeSSIF, read-out: Kinetic solubility (FeSSIF)
[4] = aqueous buffer, 50 mM phosphate buffer pH 7.4, 24 hours at room temperature, read-out: Kinetic solubility @pH 7.4

Row | Compound | DC50 (B cell lymphoma 6 (BCL6)) [nM] | BCL6 degrader status (in words) (B cell lymphoma 6 (BCL6); conclusion drawn from Table 1) | solubility kinetic at 24 h (Kinetic solubility; [2]) [µM] | solubility kinetic at 24 h (Kinetic solubility; [3]) [µM] | solubility kinetic at 24 h (Kinetic solubility; [4]) [µM] | microsomal CLint at 1 µM [1] [µL/min/mg]
1 | C[C@@H]1CN(c2ncc(Cl)c(Nc3ccc4c(c3)n(CCC(C)(C)O)c(=O)n4C)n2)C[C@H](N)C1(F)F [Compound 1, 5-[[2-[(3S,5R)-3-Amino-4,4-difluoro-5-methyl-1-piperidyl]-5-chloro-pyrimidin-4-yl]amino]-3-(3-hydroxy-3-methyl-butyl)-1-methyl-benzimidazol-2-one] | 20 | degraders of BCL6 | 208 (≈ 106 µg/mL) | 232 (≈ 118 µg/mL) | 108 (≈ 55.1 µg/mL) | < 6.1
2 | C[C@@H]1C[C@H](C)CN(c2ncc(Cl)c(Nc3ccc4c(c3)n(CCC(C)(C)O)c(=O)n4C)n2)C1 [Cmp B] | – | – | < 1.56 | 213 (≈ 101 µg/mL) | < 1.56 | 30
3 | CNC(=O)COc1cc2cc(Nc3nc(N4C[C@@H](C)C(F)(F)[C@@H](C)C4)ncc3Cl)ccc2n(C)c1=O [Cmp A] | 5 | – | < 1.56 | 1.82 (≈ 0.948 µg/mL) | < 1.56 | < 3.7
4 | C[C@@H]1CN(c2ncc(Cl)c(Nc3ccc4c(c3)n(CCC(C)(C)O)c(=O)n4C)n2)C[C@H](C)C1(F)F [CCT-369260] | – | – | 2.92 (≈ 1.49 µg/mL) | 216 (≈ 110 µg/mL) | < 1.56 | 12.3
5 | C[C@@H]1CN(c2ncc(Cl)c(Nc3ccc4c(c3)n(CCC(C)(C)O)c(=O)n4C)n2)C[C@H](CN)C1(F)F (single isomer, unassigned) [Compound 2a] | 105 | – | – | – | 266 (≈ 139 µg/mL) | < 6.1
6 | CNC(=O)COc1cc2cc(Nc3nc(N4C[C@H](C)C[C@H](C)C4)ncc3Cl)ccc2n(C)c1=O [BI-3802] | 5 | – | 2.97 (≈ 1.44 µg/mL) | 11.3 (≈ 5.48 µg/mL) | < 1.56 | 23.8
7 | CNC(=O)COc1cc2cc(Nc3nc(N4C[C@H](CCN)C(F)(F)[C@H](C)C4)ncc3Cl)ccc2n(C)c1=O (single isomer, unassigned) [Compound 51a] | 2 | – | 6.35 (≈ 3.49 µg/mL) | 113 (≈ 62.2 µg/mL) | < 1.56 | < 6.1
